Assay: xn = mol fraction of the nth substance listed
Conditions: Vibrating tube method

S [hydrogen sulfide] + CCC
Conditions	mass density [kg/m3]
293.28 K, 16605 kPa, Liquid, x1 = 0.2227	552.6
293.28 K, 18128 kPa, Liquid, x1 = 0.2227	555.6
293.28 K, 19790 kPa, Liquid, x1 = 0.2227	558.8
293.28 K, 21473 kPa, Liquid, x1 = 0.2227	561.9
293.28 K, 23224 kPa, Liquid, x1 = 0.2227	564.9
293.28 K, 25127 kPa, Liquid, x1 = 0.2227	568.1
293.28 K, 27137 kPa, Liquid, x1 = 0.2227	571.3
293.28 K, 29216 kPa, Liquid, x1 = 0.2227	574.5
293.28 K, 31365 kPa, Liquid, x1 = 0.2227	577.6
293.28 K, 33453 kPa, Liquid, x1 = 0.2227	580.6
293.28 K, 35831 kPa, Liquid, x1 = 0.2227	583.8
313.12 K, 202 kPa, Gas, x1 = 0.2691	3.3
313.12 K, 382 kPa, Gas, x1 = 0.2691	6.4
313.12 K, 558 kPa, Gas, x1 = 0.2691	9.5
313.12 K, 722 kPa, Gas, x1 = 0.2691	12.6
313.12 K, 878 kPa, Gas, x1 = 0.2691	15.7
313.12 K, 1040 kPa, Gas, x1 = 0.2691	19
313.12 K, 1178 kPa, Gas, x1 = 0.2691	22
313.12 K, 1322 kPa, Gas, x1 = 0.2691	25.3
313.12 K, 1455 kPa, Gas, x1 = 0.2691	28.5
313.12 K, 1580 kPa, Gas, x1 = 0.2691	31.7
313.12 K, 1693 kPa, Gas, x1 = 0.2691	34.9
313.12 K, 1773 kPa, Gas, x1 = 0.2691	37.9
313.12 K, 2189 kPa, Liquid, x1 = 0.2691	491.5
313.12 K, 2787 kPa, Liquid, x1 = 0.2691	494.6
313.12 K, 3465 kPa, Liquid, x1 = 0.2691	498
313.12 K, 4173 kPa, Liquid, x1 = 0.2691	501.2
313.12 K, 4917 kPa, Liquid, x1 = 0.2691	504.4
313.12 K, 5710 kPa, Liquid, x1 = 0.2691	507.6
313.12 K, 6516 kPa, Liquid, x1 = 0.2691	510.6
313.12 K, 7434 kPa, Liquid, x1 = 0.2691	513.9
313.12 K, 8423 kPa, Liquid, x1 = 0.2691	517.3
313.12 K, 9421 kPa, Liquid, x1 = 0.2691	520.5
313.12 K, 10495 kPa, Liquid, x1 = 0.2691	523.7
313.12 K, 11669 kPa, Liquid, x1 = 0.2691	527.1
313.12 K, 12933 kPa, Liquid, x1 = 0.2691	530.5
313.12 K, 14205 kPa, Liquid, x1 = 0.2691	533.7
313.12 K, 15491 kPa, Liquid, x1 = 0.2691	536.9
313.12 K, 16847 kPa, Liquid, x1 = 0.2691	540
313.12 K, 18303 kPa, Liquid, x1 = 0.2691	543.3
313.12 K, 19787 kPa, Liquid, x1 = 0.2691	546.4
313.12 K, 21354 kPa, Liquid, x1 = 0.2691	549.6
313.12 K, 22903 kPa, Liquid, x1 = 0.2691	552.6
313.12 K, 24556 kPa, Liquid, x1 = 0.2691	555.7
313.12 K, 26292 kPa, Liquid, x1 = 0.2691	558.8
313.12 K, 28082 kPa, Liquid, x1 = 0.2691	561.8
313.12 K, 29973 kPa, Liquid, x1 = 0.2691	564.9
313.12 K, 32005 kPa, Liquid, x1 = 0.2691	568.1
313.12 K, 34062 kPa, Liquid, x1 = 0.2691	571.2
313.12 K, 36163 kPa, Liquid, x1 = 0.2691	574.3
313.12 K, 38383 kPa, Liquid, x1 = 0.2691	577.4
333.22 K, 50 kPa, Gas, x1 = 0.2227	0.8
333.22 K, 260 kPa, Gas, x1 = 0.2227	4.1
333.22 K, 470 kPa, Gas, x1 = 0.2227	7.5
333.22 K, 671 kPa, Gas, x1 = 0.2227	10.9
333.22 K, 838 kPa, Gas, x1 = 0.2227	13.9
333.22 K, 995 kPa, Gas, x1 = 0.2227	16.9
333.22 K, 1186 kPa, Gas, x1 = 0.2227	20.5
333.22 K, 1363 kPa, Gas, x1 = 0.2227	24.1
333.22 K, 1512 kPa, Gas, x1 = 0.2227	27.2
333.22 K, 1663 kPa, Gas, x1 = 0.2227	30.6
333.22 K, 1805 kPa, Gas, x1 = 0.2227	33.9
333.22 K, 1931 kPa, Gas, x1 = 0.2227	37

Source: the NIST ThermoML archive (doi:10.1021/je100851w)
